Assay results as given in the NIST ThermoML archive (doi:10.1021/je800110r).

Conditions: 333.15 K, Liquid, Vibrating tube method

CCCCCCCCCC [decane]
Conditions	mass density [kg/m3]
4738 kPa	703.8
4760 kPa	703.6
4781 kPa	703.9
4846 kPa	703.9
4874 kPa	704
4903 kPa	703.9
4957 kPa	704.1
4981 kPa	704.1
5033 kPa	704.1
5058 kPa	704
5078 kPa	704.2
5105 kPa	704.2
5125 kPa	704.1
5153 kPa	704.1
5182 kPa	704.1
5207 kPa	704.3
5223 kPa	704.3
5253 kPa	704.2
5272 kPa	704.3
5288 kPa	704.2
5306 kPa	704.4
5324 kPa	704.3
5342 kPa	704.4
5361 kPa	704.3
5380 kPa	704.3
5399 kPa	704.4
5413 kPa	704.4
5434 kPa	704.4
5450 kPa	704.5
5470 kPa	704.5
5498 kPa	704.5
5514 kPa	704.6
5530 kPa	704.6
5548 kPa	704.5
5567 kPa	704.7
5637 kPa	704.6
5652 kPa	704.6
5669 kPa	704.7
5690 kPa	704.7
5721 kPa	704.7
5735 kPa	704.7
6140 kPa	705.1
6164 kPa	705
6191 kPa	705.1
6212 kPa	705.1
6234 kPa	705.2
6252 kPa	705.2
6280 kPa	705.2
6299 kPa	705.2
6323 kPa	705.2
6345 kPa	705.3
6367 kPa	705.3
6389 kPa	705.2
6418 kPa	705.4
6437 kPa	705.3
6464 kPa	705.3
6483 kPa	705.4
6513 kPa	705.5
6533 kPa	705.4
6560 kPa	705.5
6595 kPa	705.5
6622 kPa	705.6
6882 kPa	705.7
6909 kPa	705.8
6935 kPa	705.8
6958 kPa	706
6985 kPa	705.9
7028 kPa	705.9
7059 kPa	706
7087 kPa	706
7110 kPa	706
7135 kPa	705.9
7164 kPa	706
7188 kPa	706
7209 kPa	706.1
7243 kPa	706
7268 kPa	706.2
7306 kPa	706.1
7344 kPa	706.2
8096 kPa	706.9
8122 kPa	706.9
8147 kPa	707
8166 kPa	707
8186 kPa	707
8211 kPa	707
8236 kPa	707
8262 kPa	707
8292 kPa	707
8315 kPa	707
8335 kPa	707
8358 kPa	707
8381 kPa	707.2
8505 kPa	707.3
8536 kPa	707.2
8561 kPa	707.4
8613 kPa	707.4
8638 kPa	707.3
8740 kPa	707.4
8795 kPa	707.5
8818 kPa	707.7
8851 kPa	707.6
8872 kPa	707.6
8900 kPa	707.6
8924 kPa	707.6
9353 kPa	708
9380 kPa	708.2
9411 kPa	708.1
9435 kPa	708.2
9465 kPa	708.1
9493 kPa	708.1
9570 kPa	708.3
9598 kPa	708.2
9623 kPa	708.2
9648 kPa	708.3
9680 kPa	708.2
9709 kPa	708.3
9849 kPa	708.4
9874 kPa	708.5
9908 kPa	708.6
9931 kPa	708.6
9958 kPa	708.6
9981 kPa	708.6
10004 kPa	708.6
10023 kPa	708.6
10054 kPa	708.6
10081 kPa	708.7
10109 kPa	708.7
10145 kPa	708.8
10175 kPa	708.9
10207 kPa	708.8
10231 kPa	708.8
10260 kPa	708.8
10298 kPa	708.9
10331 kPa	708.7
10354 kPa	708.9
10384 kPa	709
10403 kPa	708.9
